#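 In this assay, cells in 96-well plates receive the compound at five concentrations for 48 hours. Endpoints are linearly interpolated between the surrounding concentrations. GI50 marks 50% less growth. At the TGI there is no net growth.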
# Experiments:
# Test in all cases: NCI-60 cell line screen, 48 h
# 786-0 renal = test system: 786-0 renal
# A498 renal = test system: A498 renal
# A549 NSCLC = test system: A549 NSCLC
# ACHN renal = test system: ACHN renal
# BT-549 breast = test system: BT-549 breast
# CAKI-1 renal = test system: CAKI-1 renal
# CCRF-CEM leukemia = test system: CCRF-CEM leukemia
# COLO 205 colon = test system: COLO 205 colon
# DU-145 prostate = test system: DU-145 prostate
# EKVX NSCLC = test system: EKVX NSCLC
# HCT-116 colon = test system: HCT-116 colon
# HCT-15 colon = test system: HCT-15 colon
# HOP-62 NSCLC = test system: HOP-62 NSCLC
# HS 578T breast = test system: HS 578T breast
# HT29 colon = test system: HT29 colon
# IGROV1 ovarian = test system: IGROV1 ovarian
# K-562 leukemia = test system: K-562 leukemia
# KM12 colon = test system: KM12 colon
# LOX IMVI melanoma = test system: LOX IMVI melanoma
# M14 melanoma = test system: M14 melanoma
# MALME-3M melanoma = test system: MALME-3M melanoma
# MCF7 breast = test system: MCF7 breast
# MDA-MB-231 breast = test system: MDA-MB-231 breast
# MDA-MB-435 = test system: MDA-MB-435
# NCI-H226 lung = test system: NCI-H226 lung
# NCI-H23 lung = test system: NCI-H23 lung
# NCI-H460 lung = test system: NCI-H460 lung
# NCI-H522 lung = test system: NCI-H522 lung
# NCI/ADR-RES ovarian = test system: NCI/ADR-RES ovarian
# OVCAR-3 ovarian = test system: OVCAR-3 ovarian
# OVCAR-4 ovarian = test system: OVCAR-4 ovarian
# OVCAR-5 ovarian = test system: OVCAR-5 ovarian
# OVCAR-8 ovarian = test system: OVCAR-8 ovarian
# RPMI-8226 leukemia = test system: RPMI-8226 leukemia
# RXF 393 renal = test system: RXF 393 renal
# SF-268 CNS = test system: SF-268 CNS
# SF-295 CNS = test system: SF-295 CNS
# SF-539 CNS = test system: SF-539 CNS
# SK-MEL-2 melanoma = test system: SK-MEL-2 melanoma
# SK-MEL-28 melanoma = test system: SK-MEL-28 melanoma
# SK-MEL-5 melanoma = test system: SK-MEL-5 melanoma
# SK-OV-3 ovarian = test system: SK-OV-3 ovarian
# SN12C renal = test system: SN12C renal
# SNB-19 CNS = test system: SNB-19 CNS
# SNB-75 CNS = test system: SNB-75 CNS
# SW-620 colon = test system: SW-620 colon
# T-47D breast = test system: T-47D breast
# TK-10 renal = test system: TK-10 renal
# U251 CNS = test system: U251 CNS
# UACC-257 melanoma = test system: UACC-257 melanoma
# UACC-62 melanoma = test system: UACC-62 melanoma
# UO-31 renal = test system: UO-31 renal
compound,measurement,setting,value
Cc1cc(C(=O)CC(Cl)=C(Cl)Cl)c(Cl)cc1Cl,GI50,786-0 renal,22.1 µM
same,TGI,786-0 renal,42.1 µM
same,GI50,A498 renal,18.2 µM
same,TGI,A498 renal,51.5 µM
same,GI50,A549 NSCLC,23.7 µM
same,TGI,A549 NSCLC,65.9 µM
same,GI50,ACHN renal,18.1 µM
same,TGI,ACHN renal,39.4 µM
same,GI50,BT-549 breast,20.2 µM
same,TGI,BT-549 breast,44.4 µM
same,GI50,CAKI-1 renal,18 µM
same,TGI,CAKI-1 renal,41.4 µM
same,GI50,CCRF-CEM leukemia,3.54 µM
same,TGI,CCRF-CEM leukemia,27.3 µM
same,GI50,COLO 205 colon,27.7 µM
same,TGI,COLO 205 colon,86.1 µM
same,GI50,DU-145 prostate,16 µM
same,TGI,DU-145 prostate,40.4 µM
same,GI50,EKVX NSCLC,19 µM
same,TGI,EKVX NSCLC,47.7 µM
same,GI50,HCT-116 colon,19.1 µM
same,TGI,HCT-116 colon,33.2 µM
same,GI50,HCT-15 colon,20 µM
same,TGI,HCT-15 colon,41.2 µM
same,GI50,HOP-62 NSCLC,21.2 µM
same,TGI,HOP-62 NSCLC,44.1 µM
same,GI50,HS 578T breast,30.3 µM
same,TGI,HS 578T breast,78.4 µM
same,GI50,HT29 colon,34.6 µM
same,TGI,HT29 colon,> 100 µM
same,GI50,IGROV1 ovarian,22 µM
same,TGI,IGROV1 ovarian,82.9 µM
same,GI50,K-562 leukemia,20.7 µM
same,TGI,K-562 leukemia,47.6 µM
same,GI50,KM12 colon,18.2 µM
same,TGI,KM12 colon,42.1 µM
same,GI50,LOX IMVI melanoma,17.6 µM
same,TGI,LOX IMVI melanoma,33.8 µM
same,GI50,M14 melanoma,31.7 µM
same,TGI,M14 melanoma,78.2 µM
same,GI50,MALME-3M melanoma,14.3 µM
same,TGI,MALME-3M melanoma,34.5 µM
same,GI50,MCF7 breast,29.1 µM
same,TGI,MCF7 breast,> 100 µM
same,GI50,MDA-MB-231 breast,23.4 µM
same,TGI,MDA-MB-231 breast,46.2 µM
same,GI50,MDA-MB-435,17.1 µM
same,TGI,MDA-MB-435,43.1 µM
same,GI50,NCI-H226 lung,23.9 µM
same,TGI,NCI-H226 lung,76.3 µM
same,GI50,NCI-H23 lung,18.6 µM
same,TGI,NCI-H23 lung,37.9 µM
same,GI50,NCI-H460 lung,23.8 µM
same,TGI,NCI-H460 lung,90.6 µM
same,GI50,NCI-H522 lung,22.6 µM
same,TGI,NCI-H522 lung,69.4 µM
same,GI50,NCI/ADR-RES ovarian,33.5 µM
same,TGI,NCI/ADR-RES ovarian,> 100 µM
same,GI50,OVCAR-3 ovarian,21.4 µM
same,TGI,OVCAR-3 ovarian,54.1 µM
same,GI50,OVCAR-4 ovarian,27.6 µM
same,TGI,OVCAR-4 ovarian,72.3 µM
same,GI50,OVCAR-5 ovarian,29.8 µM
same,TGI,OVCAR-5 ovarian,79.8 µM
same,GI50,OVCAR-8 ovarian,21.7 µM
same,TGI,OVCAR-8 ovarian,46.3 µM
same,GI50,RPMI-8226 leukemia,16.6 µM
same,TGI,RPMI-8226 leukemia,40.8 µM
same,GI50,RXF 393 renal,17.8 µM
same,TGI,RXF 393 renal,43.1 µM
same,GI50,SF-268 CNS,20.9 µM
same,TGI,SF-268 CNS,55.8 µM
same,GI50,SF-295 CNS,19.9 µM
same,TGI,SF-295 CNS,54.8 µM
same,GI50,SF-539 CNS,13.1 µM
same,TGI,SF-539 CNS,29.9 µM
same,GI50,SK-MEL-2 melanoma,51.2 µM
same,TGI,SK-MEL-2 melanoma,> 100 µM
same,GI50,SK-MEL-28 melanoma,33.5 µM
same,TGI,SK-MEL-28 melanoma,> 100 µM
same,GI50,SK-MEL-5 melanoma,18 µM
same,TGI,SK-MEL-5 melanoma,39.9 µM
same,GI50,SK-OV-3 ovarian,49.8 µM
same,TGI,SK-OV-3 ovarian,> 100 µM
same,GI50,SN12C renal,19.5 µM
same,TGI,SN12C renal,44.7 µM
same,GI50,SNB-19 CNS,35.4 µM
same,TGI,SNB-19 CNS,> 100 µM
same,GI50,SNB-75 CNS,34.8 µM
same,TGI,SNB-75 CNS,> 100 µM
same,GI50,SW-620 colon,21.7 µM
same,TGI,SW-620 colon,52.3 µM
same,GI50,T-47D breast,19.9 µM
same,TGI,T-47D breast,44.2 µM
same,GI50,TK-10 renal,15.9 µM
same,TGI,TK-10 renal,32 µM
same,GI50,U251 CNS,18.6 µM
same,TGI,U251 CNS,38.1 µM
same,GI50,UACC-257 melanoma,19.5 µM
same,TGI,UACC-257 melanoma,44.9 µM
same,GI50,UACC-62 melanoma,18.4 µM
same,TGI,UACC-62 melanoma,39.3 µM
same,GI50,UO-31 renal,22.5 µM
same,TGI,UO-31 renal,55.4 µM

# Source: PubChem BioAssay (NCI)
